Data as given in patent US6440952B2, “Phosphono-carboxylate compounds for treating amyloidosis” (Queen's University at Kingston, priority 1999, dated 2002).
Where a name gives a salt, the structure may show the parent alone.

Experiments:
Aβ peptide = target: T1, Aβ peptide (Homo sapiens, UniProt P05067); assay: in vitro circular dichroism (CD) assay for formation of β-sheet secondary structure; assay type: biochemical; settings: Aβ peptide with test compound in 10 mM Tris-HCl pH 7, incubated 0 or 24 hours at 37° C.
T1 construct: Aβ is a 40 amino acid protein associated with Alzheimer's disease; made in house; host or cells: chemical solid-phase peptide synthesis (no expression host)
Description: It is known that amyloidogenic peptides or proteins which have formed amyloid deposits or plaques have a significant amount of β-sheet secondary structure, while the unaggregated peptide or protein generally has less β-sheet structure. It is believed that the ability of a candidate therapeutic compound to prevent the formation of β-sheet secondary structure in vitro may be correlated with the ability of the compound to inhibit amyloidogenesis in vivo. Accordingly, phosphonate compounds were assayed for ability to prevent the formation of β-sheet secondary structure in assay systems including an in vitro circular dichroism (CD) assay.
Aβ is a 40 amino acid protein associated with Alzheimer's disease. Aβ peptide was prepared and purified as described in Fraser, P. E. et al., Biochemistry 31, 10716 (1992). Briefly, the peptide was synthesized by standard solid-phase techniques and purified by HPLC according to well known procedures.
All CD experiments were performed on a commercially available instrument. The cell is was maintained at 25° C. using a circulating water bath. Computer-averaging of traces was performed to improve signal-to-noise ratios. The solvent signal was subtracted. CD experiments were performed for each test compound according to the following procedure:
A stock solution of purified peptide was made by dissolving the peptide in phosphate-buffered saline (PBS) to a concentration of 2 mg/ml. A test solution was made for each potential therapeutic agent (test compound) as shown below:
The control sample had no test compound, and a total of 5 μl distilled water was added. The test solution was incubated for either 0 or 24 hours at 37° C. before CD measurement. The size minimum in the CD spectrum at 218 nm is believed to be diagnostic of the presence of β-pleated sheet. Comparison of the minimum at 218 nm of a candidate compound, compared to the minimum of a control sample, is believed to be indicative of the ability of the candidate compound to inhibit the formation of β-pleated sheet.

amyloid peptide = target: T2, amyloid peptide (Homo sapiens, UniProt P05067); assay: amyloid peptide solubility assay (overnight incubation, centrifugation, determination of soluble peptide); assay type: biochemical; settings: compound and amyloid peptide incubated together overnight, preliminary result, buffer composition may have interfered
T2 construct: Aβ is a 40 amino acid protein associated with Alzheimer's disease

[1] = system: cortical/hippocampal neuronal cultures; assay: neurotoxicity in cortical/hippocampal neuronal cultures; assay type: cell-based; settings: concentrations ranging from 10^−7M to 10^−4 M

T1 sequence (P05067 672-711 limits assumed): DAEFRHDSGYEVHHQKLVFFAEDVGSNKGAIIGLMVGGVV
T2 sequence (P05067 672-711 limits assumed): as above

| Structure (SMILES) | reduction of β-sheet formation as measured by the CD assay (minimum at 218 nm versus control) (Aβ peptide) | effect on amyloid peptide solubility (amyloid peptide) | neurotoxicity [1] |
| --- | --- | --- | --- |
| O=C(O)CCP(=O)(O)O [2 carboxyethylphosphonic acid] | lower ability to prevent β-pleated sheet formation |  |  |
| O=C(O)CP(=O)(O)O [Phosphonoacetate] | active |  |  |
| O=C(O)P(=O)(O)O [phosphonoformate trisodium salt, Trisodium phosphonoformate] | significantly and reproducibly reduce the amount of β-sheet formation | little effect on amyloid peptide solubility | no significant toxicity |
